# Assay results as given in patent publication US20260166162A1, “CARBON CHAIN SUBSTANCE FOR REGULATING TRANSMEMBRANE TRANSPORT AND FLUIDITY OF CELL MEMBRANES, AND PREPARATION AND USE THEREOF” (priority 2022, published 2026).
# “And” between values parts separate entries of the source, which are not always exact repeats. Equal values may be shown once. Read-outs that look alike come from different tables or passages of the source.
# How the values were obtained:
# [1] = tested on: SARS-CoV-2 pseudovirus; type: cell-based, SARS-CoV-2 pseudovirus B.1.526.2
# [2] = tested on: Escherichia coli; assay: Bacteriostasis/sterilization test (plate count); type: cell-based
# [3] = tested on: VERO E6 cells; assay: Cytotoxicity (CCK-8) on VERO E6 cells; settings: […] to 0.035 mM
# [4] = tested on: Methicillin-resistant Staphylococcus aureus; assay: Bacteriostasis/sterilization test (plate count); type: cell-based; settings: 0.035 mM (Table 25)
# [5] = tested on: H7N9 pseudovirus; type: cell-based, Influenza pseudovirus H7N9-Fluc
# [6] = tested on: Pseudomonas aeruginosa; assay: Bacteriostasis/sterilization test (plate count); type: cell-based
# [7] = tested on: Klebsiella pneumoniae; assay: Bacteriostasis/sterilization test (plate count); type: cell-based
# [8] = tested on: HIV pseudovirus; type: cell-based, HIV pseudovirus HIV18A-41
# [9] = tested on: H5N1 pseudovirus; type: cell-based, Influenza pseudovirus H5N1-Fluc
# [10] = tested on: Streptococcus pneumoniae; assay: Bacteriostasis/sterilization test (plate count); type: cell-based
# [11] = mouse, in vivo, po
# [12] = tested on: SARS-CoV-2 pseudovirus; set-up: species or system SARS-CoV-2 pseudovirus B.1.526.2
# [13] = tested on: Staphylococcus aureus; assay: Bacteriostasis/sterilization test (plate count); type: cell-based; settings: for inhibition rate: concentration 0.035 mM; for IC50: read-out: half inhibition concentration
# [14] = tested on: IL-1β; assay: LPS inflammatory aging in C57BL/6 mice, serum IL-1β (Example II-55, Table II-35); type: in vivo, mouse; settings: 1 mM, 200 μl/time, once a day, 30 days
# [15] = tested on: Hela cells; assay: Phagocytosis of adriamycin-loaded ferroferric oxide nanoparticles by Hela cells; type: cell-based; settings: 5 nM for 1 h, then nanoparticles 4 h
# Procedure: Hela cells (cell bank, Chinese Academy of Sciences) were seeded in a 6-well plate at a density of 1.0*10^5 and cultured for 24 h. The cells were treated with 5 nM Ser-EPA for 1 h and washed to remove Ser-EPA. Adriamycin-loaded ferroferric oxide nanoparticles were added followed by incubation for 4 h. Then, the cells were washed with PBS, stained with DAPI, and observed with confocal microscope.
# [16] = tested on: Hela cells; assay: Cell membrane fluidity (Laurdan fluorescence recovery) in Hela cells; type: cell-based
# [17] = tested on: IL-6; assay: LPS inflammatory aging in C57BL/6 mice, serum IL-6 (Example II-55, Table II-36); type: in vivo, mouse
# [18] = tested on: TNF-α; assay: LPS inflammatory aging in C57BL/6 mice, serum TNF-α (Example II-55, Table II-37); type: in vivo, mouse; settings: 1 mM, 200 μl/time once a day for 30 days, LPS C57BL/6 mice
# [19] = tested on: IL-6; assay: Skin photoaging (UVB) in BALB/c nude mice, serum IL-6 (Example II-54, Table II-34); type: in vivo, mouse
# [20] = tested on: IL-1β; assay: Skin photoaging (UVB) in BALB/c nude mice, serum IL-1β (Example II-54, Table II-33); type: in vivo, mouse
# [21] = tested on: TNF-α; assay: Skin photoaging (UVB) in BALB/c nude mice, serum TNF-α (Example II-54, Table II-32); type: in vivo, mouse; settings: UVB-irradiated BALB/c nude mice, 40 days
# [22] = tested on: Hela cells; assay: Cell migration (scratch) in Hela cells; type: cell-based; settings: 24 h
# Procedure: Hela cells in logarithmic growth phase (cell bank of Chinese Academy of Sciences) were trypsinized into a single cell suspension and inoculated into a 6-well culture plate. […] The next day 5 nM Thr-EPA was added by scratching with a 200-microliter gun tip against the horizontal line on the vertical back of the lid of the 6-well plate. 24 h later, samples were taken and photographed. […] Hela cells in logarithmic growth phase (cell bank of Chinese Academy of Sciences) were trypsinized into a single cell suspension and inoculated into a 6-well culture plate. […] The next day […] Thr-EPA was added by scratching with a 200-microliter gun tip against the horizontal line on the vertical back of the lid of the 6-well plate. 24 h later, samples were taken and photographed.
# [23] = tested on: HPV pseudovirus (HPV6-GFP); settings: read-out: median neutralization concentration
# [24] = tested on: Human hair follicle stem cells; assay: Human hair follicle stem cell proliferation (EdU); type: cell-based; settings: 20 μM, 30 μM, 50 μM, 6 h
# [25] = 30 μM smeared, serum, UVB-irradiated BALB/c nude mice, 40 days
# [26] = 50 μM smeared, serum, UVB-irradiated BALB/c nude mice, 40 days
# [27] = 100 μM smeared, serum, UVB-irradiated BALB/c nude mice, 40 days
compound,measurement,setting,value
CCC=CCC=CCC=CCC=CCC=CCC=CCCC(=O)NCCCCC(N)C(=O)O (stereo not shown),Sterilization rate (%),[1],99%
same,Inhibition rate (%),[2],99%
same,effect of the complex on cells,[3],less than 10%
same,Inhibition rate (%),[4],99%
same,Sterilization rate (%),[5],99%
same,Inhibition rate (%),[6],99%
same,Inhibition rate (%),[7],99%
same,Sterilization rate (%),[8],99%
same,Sterilization rate (%),[9],99%
same,Inhibition rate (%),[10],99%
same,"liver, heart, kidney, bone/hepatobiliary function in blood versus control group",[11],no difference
same,"physiological state, body weight, fur color, food consumption, mental state versus control group",[11],not significantly different
same,membrane structure of the virus (TEM),[12],broken
same,Inhibition rate (%),[13],99%
same,inhibition rate,[13],greater than 99%
same,IC50,[13],9 µM
"CCC=CCC=CCC=CCC=CCC=CCCCC(=O)NC(CO)C(=O)O (stereo not shown) [Ser-EPA, Serine-EPA]",IL-1β,[14],48 pg/mL
same,phagocytosis of nanoparticles by treated cells,[15],significantly inhibited
same,Fluorescence recovery rate %,"[16]; 2 nM, 20 s",63.44%
same,Fluorescence recovery rate %,"[16]; 2 nM, 40 s",65.36%
same,Fluorescence recovery rate %,"[16]; 2 nM, 60 s",65.21%
same,Fluorescence recovery rate %,"[16]; 2 nM, 80 s",66.35%
same,Fluorescence recovery rate %,"[16]; 5 nM, 20 s",64.73%
same,Fluorescence recovery rate %,"[16]; 5 nM, 40 s",64.59%
same,Fluorescence recovery rate %,"[16]; 5 nM, 60 s",65.66%
same,Fluorescence recovery rate %,"[16]; 5 nM, 80 s",67.97%
same,Fluorescence recovery rate %,"[16]; 10 nM, 20 s",64.66%
same,Fluorescence recovery rate %,"[16]; 10 nM, 40 s",65.11%
same,Fluorescence recovery rate %,"[16]; 10 nM, 60 s",65.24%
same,Fluorescence recovery rate %,"[16]; 10 nM, 80 s",66.83%
same,Fluorescence recovery rate %,"[16]; 50 nM, 20 s",62.84%
same,Fluorescence recovery rate %,"[16]; 50 nM, 40 s",62.94%
same,Fluorescence recovery rate %,"[16]; 50 nM, 60 s",63.04%
same,Fluorescence recovery rate %,"[16]; 50 nM, 80 s",64.54%
same,Fluorescence recovery rate %,"[16]; 50 μM, 20 s",64.33%
same,Fluorescence recovery rate %,"[16]; 50 μM, 40 s",72.49%
same,Fluorescence recovery rate %,"[16]; 50 μM, 60 s",73.77%
same,Fluorescence recovery rate %,"[16]; 50 μM, 80 s",81.40%
same,Fluorescence recovery rate %,"[16]; 100 μM, 20 s",65.72%
same,Fluorescence recovery rate %,"[16]; 100 μM, 40 s",72.99%
same,Fluorescence recovery rate %,"[16]; 100 μM, 60 s",74.34%
same,Fluorescence recovery rate %,"[16]; 100 μM, 80 s",80.39%
same,IL-6,"[17]; mouse, in vivo",47 pg/mL
same,TNF-α,[18],48 pg/mL
same,IL-6,"[19]; mouse, in vivo",41 pg/mL and 38 pg/mL and 39 pg/mL
same,IL-1β,"[20]; mouse, in vivo",57 pg/mL and 61 pg/mL and 54 pg/mL
same,TNF-α,[21]; 30 μM smeared,54 pg/mL
same,TNF-α,[21]; 50 μM smeared,49 pg/mL
same,TNF-α,[21]; 100 μM smeared,44 pg/mL
CCC=CCC=CCC=CCC=CCC=CCCCC(=O)OC(C)C(N)C(=O)O (stereo not shown) [Thr-EPA],cell migration,[22]; 5 nM,inhibited cell migration
same,cell migration,[22]; 50 µM,promoted cell migration
CCC=CCC=CCC=CCC=CCC=CCC=CCCC(=O)OC(C)C(N)C(=O)O (stereo not shown),IL-1β,[14],55 pg/mL
same,Sterilization rate (%),[1],99%
same,Inhibition rate (%),[2]; 0.035 mM (Table 25),99%
same,Inhibition rate (%),[4],99%
same,Sterilization rate (%),[5],99%
same,Inhibition rate (%),[6]; 0.035 mM (Table 25),99%
same,Fluorescence recovery rate %,"[16]; 2 nM, 20 s",65.48%
same,Fluorescence recovery rate %,"[16]; 2 nM, 40 s",66.31%
same,Fluorescence recovery rate %,"[16]; 2 nM, 60 s",66.25%
same,Fluorescence recovery rate %,"[16]; 2 nM, 80 s",66.78%
same,Fluorescence recovery rate %,"[16]; 5 nM, 20 s",65.47%
same,Fluorescence recovery rate %,"[16]; 5 nM, 40 s",65.23%
same,Fluorescence recovery rate %,"[16]; 5 nM, 60 s",65.38%
same,Fluorescence recovery rate %,"[16]; 5 nM, 80 s",66.45%
same,Fluorescence recovery rate %,"[16]; 10 nM, 20 s",65.89%
same,Fluorescence recovery rate %,"[16]; 10 nM, 40 s",66.04%
same,Fluorescence recovery rate %,"[16]; 10 nM, 60 s",66.59%
same,Fluorescence recovery rate %,"[16]; 10 nM, 80 s",66.71%
same,Fluorescence recovery rate %,"[16]; 50 nM, 20 s",67.42%
same,Fluorescence recovery rate %,"[16]; 50 nM, 40 s",67.43%
same,Fluorescence recovery rate %,"[16]; 50 nM, 60 s",67.57%
same,Fluorescence recovery rate %,"[16]; 50 nM, 80 s",68.06%
same,Fluorescence recovery rate %,"[16]; 50 μM, 20 s",66.54%
same,Fluorescence recovery rate %,"[16]; 50 μM, 40 s",73.45%
same,Fluorescence recovery rate %,"[16]; 50 μM, 60 s",77.91%
same,Fluorescence recovery rate %,"[16]; 50 μM, 80 s",84.66%
same,Fluorescence recovery rate %,"[16]; 100 μM, 20 s",66.60%
same,Fluorescence recovery rate %,"[16]; 100 μM, 40 s",74.67%
same,Fluorescence recovery rate %,"[16]; 100 μM, 60 s",78.31%
same,Fluorescence recovery rate %,"[16]; 100 μM, 80 s",86.44%
same,IL-6,"[17]; 1 mM, 200 μl/time once a day for 30 days, serum, LPS C57BL/6 mice",50 pg/mL
same,TNF-α,[18],53 pg/mL
same,Inhibition rate (%),[7]; 0.035 mM (Table 25),99%
same,Sterilization rate (%),[8],99%
same,IL-6,[19]; [25],36 pg/mL
same,IL-6,[19]; [26],35 pg/mL
same,IL-6,[19]; [27],34 pg/mL
same,Sterilization rate (%),[9],99%
same,Inhibition rate (%),[10]; 0.035 mM (Table 25),99%
same,IL-1β,[20]; [25],54 pg/mL
same,IL-1β,[20]; [26],56 pg/mL
same,IL-1β,[20]; [27],50 pg/mL
same,TNF-α,[21]; 30 μM smeared,53 pg/mL
same,TNF-α,[21]; 50 μM smeared,47 pg/mL
same,TNF-α,[21]; 100 μM smeared,49 pg/mL
same,membrane structure of the virus (TEM),[12],broken
same,Inhibition rate (%),[13]; 0.035 mM (Table 25),99%
same,inhibition rate,[13],greater than 99%
same,IC50,[13],9 µM
CCC=CCC=CCC=CCC=CCC=CCC=CCCC(=O)OCC(N)C(=O)O (stereo not shown),IC50,[23],9 µM
same,proliferation of human hair follicle stem cells,[24],effectively promote the proliferation
same,Sterilization rate (%),[1],99%
same,Inhibition rate (%),[2]; 0.035 mM (Table 25),99%
same,Inhibition rate (%),[4],99%
same,Sterilization rate (%),[5],99%
same,Inhibition rate (%),[6]; 0.035 mM (Table 25),99%
same,Inhibition rate (%),[7]; 0.035 mM (Table 25),99%
same,Sterilization rate (%),[8],99%
same,Sterilization rate (%),[9],99%
same,Inhibition rate (%),[10]; 0.035 mM (Table 25),99%
same,Inhibition rate (%),[13]; 0.035 mM (Table 25),99%
same,inhibition rate,[13],greater than 99%
same,IC50,[13],9 µM
CC/C=C\C/C=C\C/C=C\CCCCCCCC(=O)NCCCCC(N)C(=O)O (stereo not shown) [Lys-ALA],proliferation of human hair follicle stem cells,[24],effectively promote the proliferation
